Assay results: article PMC3335862, “Novel Small-Molecule Inhibitors of Hepatitis C Virus Entry Block Viral Spread and Promote Viral Clearance in Cell Culture” (PLoS ONE, 2012)
pEC50: −log10 of the molar value. Read-outs that look alike come from different tables or passages of the source.

Legend:
in vitro = details: human
VSVpp = experiment: microbe, parasite or virus in culture; type: cell-based, VSV
[1] = tested on: HCVpp typed with envelopes representing genotypes 2a, 2b, 3, and 6; experiment: microbe, parasite or virus in culture; type: cell-based; details: Hepatitis C virus
HCVpp GT1a-V719L = type: cell-based, hepatitis C virus; details: GT1a background
GT 1b/2a HCV = experiment: HCV cell culture infection assay (Renilla luciferase), GT 1b/2a; details: Hepatitis C virus, GT1B, read-out: HCV Cell Culture EC50 GT 1b/2a
HCVpp GT 1a V719A = type: cell-based, hepatitis C virus
GT 1a/2a HCV [2] = experiment: HCV cell culture infection assay (Renilla luciferase), GT 1a/2a; details: Hepatitis C virus, GT1A, read-out: HCV Cell Culture EC50 GT 1a/2a
GT 1a/2a HCV [3] = experiment: HCV viral spread assay (cell-free and cell-cell transmission), flow cytometry; type: cell-based, hepatitis C virus; details: 72 h; PRO0371155 1 µM, PA-25 10 µg/mL; DMSO control 18.3, Background 0.31
Text: Figure 3 PRO0371155 inhibits HCV infection by both cell-free and cell-cell modes of transmission. […] TEXT PRINTED IN THE PICTURE: PA-25: 7.54; 19.9; 66.8; 5.75 | DMSO: 4.4; 29.8; 47.6; 18.3 | PRO0371155: 8.1; 25.7; 65.7; 0.48 DOUBTS OF THE COPYIST ABOUT THIS PICTURE: All values are quadrant numbers of flow cytometry plots, given in the order upper left, upper right, lower left, lower right. The picture prints no measure or unit with them. / The print is very small, so 3, 5, 6, 8 and 9 cannot be told apart with certainty in any of the values below. / PA-25: 7.54, 19.9, 66.8 (partly hidden by data points; may be 65.8 or 68.8), 5.75 / DMSO: 4.4, 29.8 (or 29.6), 47.6 (partly hidden by data points; may be 47.8), 18.3 (or 18.8) / PRO0371155: 8.1, 25.7, 65.7 (partly hidden by data points), 0.48 (or 0.46) / The plot headed 'Background' (0.016, 5.44e-3, 99.7, 0.31) is left out because it is a staining control and not a substance.
8.8.7 software (TreeStar).
To determine whether the triazine series can block both routes of infection, we utilized a flow cytometry-based cell-to-cell transmission assay. Infected cells, stained with CellTracker green, were mixed with naïve cells in the presence or absence of entry inhibitors.

[4] = tested on: HCVpp pseudotyped with the GT1a envelope; experiment: microbe, parasite or virus in culture; type: cell-based; details: Hepatitis C virus, Hep3B cells, 72 h
HCVpp V719G = type: cell-based, hepatitis C virus; details: GT1a background
HCVpp GT1a Pass. Ctrl. = experiment: microbe, parasite or virus in culture; type: cell-based; details: Hepatitis C virus, envelope from DMSO passage control culture
HCVpp genotype 4 = experiment: microbe, parasite or virus in culture; type: cell-based; details: Hepatitis C virus; n = 1 strain
HCVpp GT 1a-V719I = type: cell-based, hepatitis C virus
HCVpp GT 1b-V719L = type: cell-based, hepatitis C virus; details: Genotype 1b background
GT 1a/2a HCV [5] = experiment: Quantification of HCV RNA by qRT-PCR in long term treated cultures
HCVpp GT 1b = experiment: microbe, parasite or virus in culture; type: cell-based; details: Hepatitis C virus, GT1B
[6] = tested on: Hep3B, Huh-7, 293T, HeLa, Daudi, Ramos, Jurkat, primary hepatocyte; details: CellTiter Glo assay; data not shown except Hep3B
HCVpp GT 1b-V719I = type: cell-based, hepatitis C virus; details: Genotype 1b background
GT 1a/2a HCV [7] = tested on: GT 1a/2a HCV
HCVpp T388A = type: cell-based, hepatitis C virus
HCVpp GT 1b V719A = type: cell-based, hepatitis C virus; details: Genotype 1b background
[8] = culture initially 33% HCV+, 1 µM

CS(=O)(=O)N1CCC(Nc2nc(Nc3cccc(C(F)(F)F)c3)nc(OCC(F)(F)F)n2)CC1 [PRO0371155]
CC50 (in vitro): 31000 nM
inhibition of entry of pseudoviral particles with envelope glycoproteins from irrelevant viruses including VSV (VSVpp): did not inhibit
pEC50 (VSVpp; Vesicular stomatitis virus, read-out: VSVpp EC50): 4.41
pEC50 [1]: < 6.00
reduction in activity vs parent GT1a envelope, V719L (HCVpp GT1a-V719L): 500 fold
pEC50 (GT 1b/2a HCV): < 6.00
reduction in potency vs parent GT1a envelope, V719A (HCVpp GT 1a V719A; GT1a background): 46 fold
pEC50 (HCVpp GT 1a V719A; Genotype 1a background): 7.04
fold change of EC50 vs parent GT 1a, V719A (HCVpp GT 1a V719A; Genotype 1a background): 46 ×
pEC50 (GT 1a/2a HCV [2]): 8.05
newly infected HCV+ cells (lower right quadrant) (GT 1a/2a HCV [3]): 0.48%
pEC50 ([4]; median across panel of GT 1a envelopes from HCV+ patient sera (n = strains), read-out: HCVpp Median EC50 GT 1a): 8.05
pEC50 ([4]; prototypical/parent GT 1a envelope, read-out: GT1a (EC50), HCVpp): 8.70
pEC50 (HCVpp V719G): < 6.00
loss in susceptibility, V719G vs GT1a in the HCVpp assay (HCVpp V719G): > 500 fold
pEC50 (HCVpp GT1a Pass. Ctrl.): 8.40
pEC50 (HCVpp genotype 4): 6.72
reduction in potency vs parent GT1a envelope, V719I (HCVpp GT 1a-V719I; GT1a background): 34 fold
pEC50 (HCVpp GT 1a-V719I; Genotype 1a background): 7.17
fold change of EC50 vs parent GT 1a, V719I (HCVpp GT 1a-V719I; Genotype 1a background): 34 ×
pEC50 (HCVpp GT 1b-V719L): < 6.00
fold change of EC50 vs parent GT 1b, V719L (HCVpp GT 1b-V719L): 3 ×
time HCV RNA maintained at background levels after removal of compound (GT 1a/2a HCV [5]): > 50 days
HCV RNA levels (GT 1a/2a HCV [5]; after 100 days in the presence of compound, 1 µM, limit of quantification): < 0.5 copies/cell
pEC50 (HCVpp GT 1b; Hep3B, parent GT 1b envelope, read-out: EC50, HCVpp GT 1b): 6.50
pEC50 (HCVpp GT 1b; median across panel of GT 1b envelopes from HCV+ patient sera (n = strains), Hep3B cells, 72 h, read-out: HCVpp Median EC50 GT 1b): < 6.08
cytotoxicity against a panel of cell lines and primary cells [6]: minimal cytotoxicity
pEC50 (HCVpp GT 1b-V719I): < 6.00
fold change of EC50 vs parent GT 1b, V719I (HCVpp GT 1b-V719I): 3 ×
change in percentage of HCV+ cells (NS3 staining) (GT 1a/2a HCV [7]; 20% HCV+ at baseline, PRO0371155 1 µM, IFN-alpha 10 IU/mL): more gradual decline
day of viral breakthrough in the presence of compound (GT 1a/2a HCV [7]; [8]): 21 days
time to loss of viral suppression and emergence of drug resistance (GT 1a/2a HCV [7]; [8]): ~3 weeks
fate of infected cells on long term treatment (GT 1a/2a HCV [7]; culture initially 90% HCV+, 1 µM): eradicated
viral rebound during washout period (GT 1a/2a HCV [7]; drug released at day 116, passaged additional 30 days, 90% HCV+ culture): not observed
influence of T388A on susceptibility in the HCVpp assay (HCVpp T388A): did not have any influence
pEC50 (HCVpp T388A; GT1a background): 8.70
pEC50 (HCVpp GT 1b V719A): 6.56
fold change of EC50 vs parent GT 1b, V719A (HCVpp GT 1b V719A): 0.9 ×
